For 31 compounds, TGI and GI50 results are on record in PubChem BioAssay (NCI).

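Each compound was tested at five concentrations against cells in 96-well plates for 48 hours. Here, GI50 denotes the concentration required for 50% inhibition of growth. Definition used: TGI = concentration required for complete inhibition of growth.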 Some results are limits rather than exact numbers.

What all share (experiment): NCI anticancer screen, dose series, 48 h
The test system of experiment [1] is NCI-H23 lung.
Experiment [2] has as its system NCI-H460 lung.
For experiment [3], the system named is OVCAR-3 ovarian.
The test system of experiment [4] is HL-60(TB) leukemia.
Experiment [5] relates to SN12C renal.
Experiment [6] has as its system 786-0 renal.
Experiment [7] has as its system ACHN renal.
Experiment [8] deals with NCI-H226 lung.
The test system of experiment [9] is MDA-MB-231 breast.
Experiment [10] deals with PC-3 prostate.

Take `CCN1CCC(O)(c2ccc(Cl)cc2)C(C(=O)c2ccc(Cl)cc2)C1` (centres undefined): the TGI in [1], in experiment [2], in experiment [3], in [4], in experiment [5] and in experiment [6] was over 100 µM in each case. The TGI in [7] was over 100 µM.

Regarding `CCOC(=O)c1[nH]c(COC(C)=O)c2c1CCCCCCCCCC2`, the TGI in experiment [1], in [2], in [3], in experiment [8], in [4] and in experiment [5] was over 100 µM in each case. The compound also yielded a TGI in [6] of over 100 µM.

On to `CCN(CC)c1ccc(N=Nc2ccc(-c3nc4ccc[n+](C)c4o3)cc2)cc1`, for which the TGI in [1] was found to be 28.6 µM; in experiment [2], 29.2 µM; in experiment [3] it was 21.8 µM; in [8] it was 27.6 µM; in experiment [4], 7.32 µM; in experiment [5], 45.5 µM. The same compound came in with a TGI in experiment [6] of 23.7 µM.

`Cn1cc2ccccc2c1-c1nc(F)nc(OCC(=O)[C@H]2CCC3[C@@H]4CCC5=CC(=O)CC[C@]5(C)C4[C@@H](O)C[C@@]32C)n1` (some centres undefined): the TGI in [1] worked out at 16.5 µM; in experiment [2], 52.2 µM; in experiment [3], 33.2 µM; in experiment [8] it was 36.5 µM; in experiment [4], 25.3 µM; in experiment [5], 30.8 µM. For the same compound, the TGI in experiment [6] is 30.5 µM; in experiment [7], 32.6 µM.

Turning to `Cc1cc2c([nH]c3ccccc32)c2c1OC(C)(C)C1C3CC(C)(C)Oc4c(C)cc5c6ccccc6n(c5c43)C21` (centres undefined), the TGI in experiment [1], in experiment [2], in experiment [3], in experiment [4], in [5] and in experiment [6] was over 100 µM each time. For the same compound, in experiment [7], the TGI is over 100 µM.

`N#CC1CCCCCCCCCCC(=O)N(CCCl)C1=O` (centres undefined): the TGI in [1], in experiment [2], in experiment [3], in [4], in experiment [5] and in experiment [6] was over 100 µM in each case. Besides, in experiment [7], the TGI is over 100 µM.

Consider `CN(C)CC/[N+]([O-])=C(/c1ccccc1)C12CC3CC(CC(C3)C1)C2`, for which the TGI in experiment [1] stood at 37.4 µM; in experiment [2] it was 35.1 µM; in experiment [3], 27.8 µM; in experiment [8] it was 27.5 µM; in experiment [4], 26.1 µM; in experiment [5] it was 31.9 µM. Moreover, the TGI in experiment [6] is 26.8 µM; in experiment [7], 29.8 µM.

`Cn1cc(C(=O)C[n+]2ccccc2)c2ccccc21`: the TGI in experiment [1] is over 100 µM; in experiment [2] it was over 100 µM; in [3] it was over 100 µM; in experiment [8], 59.1 µM; in experiment [4], over 100 µM; in experiment [5] it was over 100 µM. The TGI in experiment [6] and in [7] was over 100 µM in each case.

`COc1ccc(OCC(=O)O)c(C(=O)CCC(=O)O)c1`: the TGI in experiment [1] was over 100 µM; in experiment [2], over 100 µM; in experiment [3], over 10 µM; in experiment [8] it was over 100 µM; in [4], over 100 µM; in experiment [5] it was over 100 µM. Further, the TGI in experiment [6] and in [7] was over 100 µM each time.

Regarding `CC(C)OP(=O)(NC(=S)c1ccccc1)OC(C)C`, the TGI in experiment [1], in experiment [2], in experiment [3], in experiment [8], in [5] and in [6] was over 100 µM each time. This compound also displayed a TGI in experiment [7] of over 100 µM.

Take `CC1(C)C2C=CC1C(=O)CC2` (centres undefined): the TGI in experiment [1], in experiment [2], in experiment [3], in experiment [8], in [4] and in experiment [6] was over 100 µM in each case. The TGI in experiment [7] was over 100 µM.

As for `CC(=O)OCC1OC(n2c(-c3ccc(C)cc3)cc(-c3ccccc3)c(C#N)c2=O)C(OC(C)=O)C(OC(C)=O)C1OC(C)=O` (centres undefined), the TGI in experiment [1], in experiment [2], in experiment [3], in experiment [8], in [4] and in [5] was over 100 µM throughout. For the same compound, the TGI in experiment [6] and in experiment [7] was over 100 µM throughout.

Regarding `O=c1cccccc1[O-].O=c1cccccc1[O-].O=c1cccccc1[O-].[La+3]`, the TGI in experiment [1] was over 100 µM; in experiment [2], over 100 µM; in experiment [3] it was 55.8 µM; in experiment [8], 99 µM; in experiment [4], 30.9 µM; in experiment [5], over 100 µM. Further, the figures for the TGI in experiment [6] and in experiment [7] were 30.4 µM and over 100 µM, respectively. Besides, the GI50 in experiment [5] was 22.3 µM.

For the compound `Cc1cc2c(C)nn(Cc3ccc(Cl)cc3)c2c(C#N)c1C`, the TGI in experiment [1], in experiment [3], in [8], in experiment [4], in [5] and in experiment [6] was over 100 µM each time. In experiment [7], the TGI is over 100 µM.

`COC(=O)Nc1nc2ccc(Br)cc2[nH]1`: the TGI is 80.7 µM in experiment [1]; over 100 µM in [2]; 82.5 µM in [3]; over 100 µM in experiment [8]; 90 µM in experiment [4]; over 100 µM in [5]. In addition, the TGI in experiment [6] and in [7] was over 100 µM each time.

In the case of `CC(=O)OCc1cc2ccccc2nc1C(Br)(Br)Br`, the TGI in experiment [1] was determined as 29.8 µM; in experiment [2], 33.8 µM; in experiment [3], 30.2 µM; in experiment [9] it was 44.9 µM; in [8], 60.8 µM; in experiment [4], 40.9 µM. For the same compound, the TGI in experiment [5] is 26.3 µM; in [6] it was 46 µM; in [7], 27.3 µM.

For `Oc1ccc2oc3ncc(Br)c(-c4ccccc4)c3c2c1`, the GI50 in experiment [1], in [2], in experiment [3], in [10], in [4] and in experiment [6] was over 100 µM throughout. Besides, the GI50 in experiment [7] is over 100 µM. The TGI in experiment [1], in experiment [2], in experiment [3], in experiment [10], in experiment [4] and in experiment [6] was over 100 µM each time. The compound further displayed a TGI in [7] of over 100 µM.

As to `COc1ccccc1NC(=O)CC(=O)N/N=C/c1ccc(N(CCC#N)S(=O)(=O)c2ccccc2)cc1`, the TGI in [1], in experiment [2], in experiment [3], in [8], in [4] and in experiment [6] was over 100 µM throughout. Moreover, in experiment [7], the TGI was over 100 µM.

In the case of `CCCSS[C@H]1NC(=O)[C@H]1NC(=O)COc1ccccc1`, the TGI in experiment [1] came out at 31.9 µM; in experiment [2], 31.4 µM; in experiment [3], 31.5 µM; in experiment [4], 5.72 µM; in experiment [5], 29.8 µM; in experiment [6], 31.5 µM. Also, the TGI in experiment [7] is 30.2 µM.

For `COc1cccc(NC(=O)/C(Cc2nc3ccccc3nc2C)=N/NC(=O)C[n+]2ccccc2)c1`, the TGI in experiment [1], in [2], in experiment [3], in [8], in experiment [4] and in [5] was over 100 µM in each case. Further, the TGI in experiment [6] and in experiment [7] was over 100 µM each time.

For the compound `Cc1cc(C)cc(NC(N)=S)c1`, the TGI in [1], in [2], in [3], in [8], in [4] and in experiment [5] was over 100 µM throughout. The TGI in [6] and in experiment [7] was over 100 µM throughout.

As to `CCN(CC)C(=O)C(C)n1cc(C)c(=O)[nH]c1=O` (centres undefined), the TGI in [1], in experiment [2], in experiment [3], in experiment [4], in [5] and in [6] was over 100 µM each time. This compound also yielded a TGI in experiment [7] of over 100 µM.

For `COc1ccc(C2ON(c3cccc(C)n3)CC=C2C)cc1` (centres undefined), the TGI in [1] was over 100 µM; in [2], over 100 µM; in experiment [3], over 100 µM; in experiment [8], over 100 µM; in experiment [4], 43.7 µM; in experiment [5] it was over 100 µM. Further, the TGI in [6] and in experiment [7] was over 100 µM each time.

`COC(C)(C)C/C=C/C(C)=C/C=C/C(C)=C\C=C\C(C)=C\C=C\C=C(C)\C=C\C=C(C)\C=C\C=C(C)\C=C\CC(C)(C)OC`: the GI50 in [1], in experiment [2], in experiment [8], in experiment [4], in [5] and in experiment [6] was over 150 µg/mL throughout. The GI50 in [7] was over 150 µg/mL. The TGI in experiment [1], in experiment [2], in experiment [8], in experiment [4], in experiment [5] and in experiment [6] was over 150 µg/mL in each case. The TGI in experiment [7] is over 150 µg/mL.

Take `N#CC1CC2(CCN1C(=O)c1ccccc1)OCCO2` (centres undefined): the TGI in experiment [1], in [2], in experiment [3], in experiment [8], in experiment [4] and in experiment [5] was over 100 µM in each case. The TGI in [6] and in experiment [7] was over 100 µM in each case.

`O=C(NC12CC3CC(CC(C3)C1)C2)C(=O)c1c[nH]c2ccccc12`: the TGI in experiment [1] was found to be 29.6 µM; in experiment [2], 25.7 µM; in [3], 31 µM; in [4], 52.8 µM; in [5], 30.4 µM; in experiment [6], 25.8 µM. Also, the TGI in [7] was 28.8 µM.

As to `CC(=O)C1=C(O)CC2CC3c4[nH]c5ccccc5c4CCN3CC2C1` (centres undefined), the TGI in experiment [1], in experiment [2], in experiment [3], in experiment [8], in experiment [4] and in experiment [5] was over 100 µM in each case. Besides, the TGI in experiment [6] and in [7] was over 100 µM in each case.

For `N#CC1(C#N)C(C#N)(C#N)C12CCCCCC2`, the TGI in experiment [1] was 31.3 µM; in experiment [2] it was over 66.5 µM; in experiment [3], 29.7 µM; in experiment [8] it was 47.5 µM; in [4] it was 20.6 µM; in [5], 33.7 µM. Also, the TGI is 14.3 µM in experiment [6] and 23.2 µM in experiment [7].

Turning to `O=C(c1ccccc1)c1cn(/N=C\c2ccccc2)c(=O)nc1-c1ccccc1`, the TGI in [1], in experiment [2], in experiment [3], in experiment [8], in [5] and in experiment [6] was over 100 µM in each case. This compound also had a TGI in experiment [7] of over 100 µM.

With `Clc1ccc(C(n2cc(Br)cn2)n2cc(Br)cn2)cc1`, the TGI amounted to 42.6 µM in experiment [1]; 33.7 µM in [2]; 28 µM in experiment [3]; 22.5 µM in experiment [8]; 56.6 µM in experiment [4]; 32.3 µM in experiment [5]. Moreover, the figures for the TGI in [6] and in [7] were 27.8 µM and 27.6 µM, respectively.

On to `CC(C)(c1ccccc1)c1ccc(OC#N)cc1`, for which the TGI in experiment [1] is over 100 µM; in experiment [2], over 59.1 µM; in [3], over 100 µM; in experiment [8], over 100 µM; in experiment [4], over 77.9 µM; in [5], over 100 µM. For the same compound, the TGI in experiment [6] and in experiment [7] was over 100 µM each time.
